# Laboratory results published in patent US20250262279A1, “DOSE REGIMEN FOR LONG-ACTING GLP1/GLUCAGON RECEPTOR AGONISTS” (Boehringer Ingelheim International GmbH, priority 2021, published 2025).
# Legend:
# [1] = first-in-man Phase I single-rising-dose study, adverse events; type: in vivo, human
# Procedure: Compound I was recently studied in a first-in-man Phase I single-rising-dose study. In this study, a dose of 0.3 mg led to ‘mild loss of appetite’ in 33% of healthy subjects. This specific AE increased to 50% in the 0.5 mg dose group. Dose escalation to 1.2 mg was associated with 83% of the subjects experiencing moderate to severe nausea for 1 to 6 days and mild to severe vomiting.
# [2] = Example 3: safety (AEs, laboratory, ECG, vital signs, NASH scores); type: in vivo, human
# Procedure: • Semaglutide • Dose: 0.25, 0.25, 0.25, 0.25, 0.5, 0.5, 0.5, 0.5, 1.0 mg (weeks 9−16) once weekly • Mode of administration: Solution for injection
# Safety endpoints included Columbia-Suicide Severity Rating Scale (C-SSRS) and various electrocardiograms (ECG) assessments. Safety was assessed based on adverse events (AEs), adverse event of special interest (AESIs), clinical laboratory assessments, vital signs, and physical examination. AESIs were pre-specified in the protocol as pancreatitis and hepatic injury.
# Analyses of safety were descriptive.
# [3] = Example 2 Phase I study in healthy Japanese men: safety and tolerability; type: in vivo, human
# From the text: This study was a randomised, placebo-controlled, single-blind, and parallel-group clinical trial with up to 3 dose-escalation schemes (Dose Groups [DGs]1 to 3) in healthy Japanese male subjects with BMI 23 to 40 kg/m^2. The weekly (DG1 and DG2) or twice a week (DG3) dosing in this scheme allowed for immediate clinical evaluation whether a further increase in the cumulative weekly dose was safe and well tolerated. The treatment duration was 16 weeks in total including a dose escalation phase to minimize Gastrointestinal (GI) Adverse Events (AEs) of Compound I. This was followed by a 4-week follow-up period.
# The primary endpoint to assess the safety and tolerability of Compound I was the cumulative percentage (%) of subjects withdrawn from the up-titration by the dose escalation scheme.
# • AEs (including clinically relevant findings from the physical examination) • Safety laboratory tests • 12-lead electrocardiogram (ECG) • Continuous ECG monitoring • Vital signs (blood pressure, pulse rate) • Columbia-Suicide Severity Rating Scale (C-SSRS) • Change from baseline in heart rate following treatment with Compound I relative to placebo (until 24 hours after Compound I administration) • The cumulative number [N (%)] of subjects withdrawn from the up-titration by the dose escalation scheme and week
# The main objective of this trial was to assess the safety and tolerability of Compound I as well as PK and PD parameters by using descriptive statistics for all endpoints, which were compared across treatment groups. Further analysis comprised linear modelling for attainment of steady state in DG1.
# [4] = Example 1 Phase I titration study in obesity/overweight: safety and tolerability
# From the text: Blinded within dose groups, randomised, placebo-controlled
# • Male patients (Part A); male and female patients (Part B) • Age 18 to <70 years • BMI 27 to <40 kg/m^2 • Body weight of at least 70 kg for women and 80 kg for men • Stable body weight, defined as no more than 5% change within 3 months prior to screening
# Further criteria of interest: • AEs (including clinically relevant findings from the physical examination and assessment of local tolerability) • Safety laboratory tests • 12-lead ECG • Vital signs (blood pressure, pulse rate) • Continuous ECG (including mean daily heart rate) • Assessment of local tolerability by the investigator • The cumulative number [N (%)] of patients withdrawn from up-titration by up-titration scheme and week
# Descriptive statistics were calculated for all endpoints. […] No formal interim analysis was conducted. Data from the completed 6-week cohorts were analysed before database lock for internal decision-making.
# [5] = Ex.1 Part B, Weekly 6 (twice weekly)
compound,measurement,setting,value
CC[C@H](C)[C@H](NC(=O)[C@H](Cc1ccccc1)NC(=O)[C@H](CC(=O)O)NC(=O)[C@H](CCCCN)NC(=O)[C@H](C)NC(=O)[C@H](C)NC(=O)[C@H](CCCNC(=N)N)NC(=O)[C@H](CCC(=O)O)NC(=O)[C@H](CC(=O)O)NC(=O)[C@H](CC(C)C)NC(=O)[C@H](Cc1ccc(O)cc1)NC(=O)[C@H](CCCCN)NC(=O)[C@H](CO)NC(=O)[C@H](Cc1ccc(O)cc1)NC(=O)[C@H](CC(=O)O)NC(=O)[C@H](CO)NC(=O)[C@@H](NC(=O)[C@H](Cc1ccccc1)NC(=O)[C@@H](NC(=O)CNC(=O)[C@H](CCC(N)=O)NC(=O)C1(NC(=O)[C@@H](N)Cc2c[nH]cn2)CCC1)[C@@H](C)O)[C@@H](C)O)C(=O)N[C@@H](CCCCNC(=O)CNC(=O)CNC(=O)[C@H](CO)NC(=O)CNC(=O)[C@H](CO)NC(=O)CNC(=O)CC[C@H](NC(=O)CCCCCCCCCCCCCCCCC(=O)O)C(=O)O)C(=O)N[C@@H](Cc1c[nH]c2ccccc12)C(=O)N[C@@H](CC(C)C)C(=O)N[C@@H](CCC(=O)O)C(=O)N[C@@H](CO)C(=O)N[C@@H](C)C(N)=O [Compound I],healthy subjects with mild loss of appetite,[1]; single dose 0.3 mg,33%
same,healthy subjects with mild loss of appetite,[1]; single dose 0.5 mg,50%
same,subjects with moderate to severe nausea for 1 to 6 days and mild to severe vomiting,[1]; single dose 1.2 mg,83%
same,deaths,"[2]; Ex.3, whole trial",no deaths
same,"AEs of special interest, percentage of patients",[2]; in vivo,(0.3) interest %
same,cases of pancreatitis,[2]; in vivo,no cases of pancreatitis
same,AEs in the cardiac disorder class,[3]; Ex.2,no AEs reported
same,clinical laboratory values,[3]; Ex.2,Findings of clinical relevance were not observed
same,deaths and AEs of special interest,[3]; Ex.2,neither deaths nor AEs of special interest reported
same,"vital signs, ECG evaluation, local tolerability, suicidal risk assessment",[3]; Ex.2,No clinically relevant findings
same,Subjects with investigator defined drug-related AEs,[3]; Ex.2 Cmp I Total,27 N
same,Number of subjects withdrawn from the up-titration,[3]; Ex.2 Compound I Total,10 N
same,pulse rate,[3]; Ex.2 Compound I dosing groups,expected increase in pulse rate
same,Number of subjects withdrawn from the up-titration,[3]; Ex.2 DG1,2 N
same,subjects with AE decreased appetite,[3]; Ex.2 DG1,8 subjects
same,subjects with AE decreased appetite,"[3]; Ex.2 DG1, of 9 trial subjects",88.9%
same,Number of subjects withdrawn from the up-titration,[3]; Ex.2 DG2,6 N
same,subjects with AE decreased appetite,[3]; Ex.2 DG2,9 subjects
same,subjects with severe vomiting,[3]; Ex.2 DG2,1 subject
same,subjects with AE decreased appetite,"[3]; Ex.2 DG2, of 9 trial subjects",100.0%
same,subjects with severe vomiting,"[3]; Ex.2 DG2, of 9 trial subjects",11.1%
same,subjects with AE decreased appetite,[3]; Ex.2 DG3,7 subjects
same,subjects with severe diarrhoea,[3]; Ex.2 DG3,1 subject
same,Number of subjects withdrawn from the up-titration,[3]; Ex.2 DG3 (twice weekly),2 N
same,subjects with AE decreased appetite,"[3]; Ex.2 DG3, of 9 trial subjects",77.8%
same,subjects with severe diarrhoea,"[3]; Ex.2 DG3, of 9 trial subjects",11.1%
same,clinical laboratory analyses,[4]; Ex.1 Part A,no treatment-emergent clinically relevant findings
same,deaths,[4]; Ex.1 Part A,No patients died
same,Patients withdrawn from up-titration,"[4]; Ex.1 Part A (6 wk), Compound I total",27 (40.3) N (%)
same,Patients withdrawn from up-titration,"[4]; Ex.1 Part A (6 wk), Weekly 1",6 (35.3) N (%)
same,Patients withdrawn from up-titration,"[4]; Ex.1 Part A (6 wk), Weekly 2",8 (44.4) N (%)
same,Patients withdrawn from up-titration,"[4]; Ex.1 Part A (6 wk), Weekly 3",13 (76.5) N (%)
same,Patients with AE leading to discontinuation of trial drug,"[4]; Ex.1 Part A, Cmp I total",5 (7.5) N (%)
same,Patients with any AE,"[4]; Ex.1 Part A, Cmp I total",67 (100) N (%)
same,Patients with investigator defined drug-related AE,"[4]; Ex.1 Part A, Cmp I total",67 (100) N (%)
same,Patients with other significant AEs (ICH E3),"[4]; Ex.1 Part A, Cmp I total",5 (7.5) N (%)
same,Patients with serious AE,"[4]; Ex.1 Part A, Cmp I total",1 (1.5) N (%)
same,Patients with severe AE,"[4]; Ex.1 Part A, Cmp I total",3 (4.5) N (%)
same,Patients with AE leading to discontinuation of trial drug,"[4]; Ex.1 Part A, Daily",0 N (%)
same,Patients with any AE,"[4]; Ex.1 Part A, Daily",15 (100) N (%)
same,Patients with investigator defined drug-related AE,"[4]; Ex.1 Part A, Daily",15 (100) N (%)
same,Patients with other significant AEs (ICH E3),"[4]; Ex.1 Part A, Daily",0 N (%)
same,Patients with serious AE,"[4]; Ex.1 Part A, Daily",0 N (%)
same,Patients with severe AE,"[4]; Ex.1 Part A, Daily",0 N (%)
same,"drug-related abdominal distension, frequency","[4]; Ex.1 Part A, Daily",13.3%
same,drug-related cardiac disorders,"[4]; Ex.1 Part A, Daily",No drug-related cardiac disorders were reported
same,"drug-related vomiting, frequency","[4]; Ex.1 Part A, Daily",no cases
same,Patients with AE leading to discontinuation of trial drug,"[4]; Ex.1 Part A, Weekly 1",1 (5.9) N (%)
same,Patients with any AE,"[4]; Ex.1 Part A, Weekly 1",17 (100) N (%)
same,Patients with investigator defined drug-related AE,"[4]; Ex.1 Part A, Weekly 1",17 (100) N (%)
same,Patients with other significant AEs (ICH E3),"[4]; Ex.1 Part A, Weekly 1",1 (5.9) N (%)
same,Patients with serious AE,"[4]; Ex.1 Part A, Weekly 1",0 N (%)
same,Patients with severe AE,"[4]; Ex.1 Part A, Weekly 1",1 (5.9) N (%)
same,proportion of patients who withdrew from up-titration,"[4]; Ex.1 Part A, Weekly 1",35.3%
same,patients with severe diarrhoea,"[4]; Ex.1 Part A, Weekly 1 and Weekly 2",2 patients
same,Patients with AE leading to discontinuation of trial drug,"[4]; Ex.1 Part A, Weekly 2",2 (11.1) N (%)
same,Patients with any AE,"[4]; Ex.1 Part A, Weekly 2",18 (100) N (%)
same,Patients with investigator defined drug-related AE,"[4]; Ex.1 Part A, Weekly 2",18 (100) N (%)
same,Patients with other significant AEs (ICH E3),"[4]; Ex.1 Part A, Weekly 2",2 (11.1) N (%)
same,Patients with serious AE,"[4]; Ex.1 Part A, Weekly 2",1 (5.6) N (%)
same,Patients with severe AE,"[4]; Ex.1 Part A, Weekly 2",2 (11.1) N (%)
same,patients with severe vomiting,"[4]; Ex.1 Part A, Weekly 2",one
same,proportion of patients who withdrew from up-titration,"[4]; Ex.1 Part A, Weekly 2",44.4%
same,patients with serious AE ventricular tachycardia,"[4]; Ex.1 Part A, Weekly 2, assessed as drug-related, led to discontinuation",One
same,Patients with AE leading to discontinuation of trial drug,"[4]; Ex.1 Part A, Weekly 3",2 (11.8) N (%)
same,Patients with any AE,"[4]; Ex.1 Part A, Weekly 3",17 (100) N (%)
same,Patients with investigator defined drug-related AE,"[4]; Ex.1 Part A, Weekly 3",17 (100) N (%)
same,Patients with other significant AEs (ICH E3),"[4]; Ex.1 Part A, Weekly 3",2 (11.8) N (%)
same,Patients with serious AE,"[4]; Ex.1 Part A, Weekly 3",0 N (%)
same,Patients with severe AE,"[4]; Ex.1 Part A, Weekly 3",0 N (%)
same,proportion of patients who withdrew from up-titration,"[4]; Ex.1 Part A, Weekly 3",76.5%
same,proportion of patients who withdrew from up-titration,"[4]; Ex.1 Part A, all Compound I groups",40.3%
same,"continuous ECG monitoring over 24 hours, mean heart rate","[4]; Ex.1 Part A, all Compound I treatment groups",increases in mean heart rate
same,clinical laboratory analyses,[4]; Ex.1 Part B,no treatment-emergent clinically relevant findings
same,deaths,[4]; Ex.1 Part B,No patients died
same,drug-related cardiac disorders,[4]; Ex.1 Part B,no cases
same,Patients withdrawn from up-titration,"[4]; Ex.1 Part B (16 wk), Compound I total",8 (22.2) N (%)
same,Patients withdrawn from up-titration,"[4]; Ex.1 Part B (16 wk), Weekly 4",3 (23.1) N (%)
same,Patients withdrawn from up-titration,"[4]; Ex.1 Part B (16 wk), Weekly 5",4 (36.4) N (%)
same,Patients withdrawn from up-titration,"[4]; Ex.1 Part B (16 wk), Weekly 6 (twice weekly)",1 (8.3) N (%)
same,Patients with AE leading to discontinuation of trial drug,"[4]; Ex.1 Part B, Cmp I Total",6 (16.7) N (%)
same,Patients with any AE,"[4]; Ex.1 Part B, Cmp I Total",35 (97.2) N (%)
same,Patients with investigator defined drug-related AE,"[4]; Ex.1 Part B, Cmp I Total",35 (97.2) N (%)
same,Patients with other significant AEs (ICH E3),"[4]; Ex.1 Part B, Cmp I Total",8 (22.2) N (%)
same,Patients with serious AE,"[4]; Ex.1 Part B, Cmp I Total",0 N (%)
same,Patients with severe AE,"[4]; Ex.1 Part B, Cmp I Total",8 (22.2) N (%)
same,Patients with AE leading to discontinuation of trial drug,"[4]; Ex.1 Part B, Weekly 4",3 (23.1) N (%)
same,Patients with any AE,"[4]; Ex.1 Part B, Weekly 4",13 (100.0) N (%)
same,Patients with investigator defined drug-related AE,"[4]; Ex.1 Part B, Weekly 4",13 (100.0) N (%)
same,Patients with other significant AEs (ICH E3),"[4]; Ex.1 Part B, Weekly 4",4 (30.8) N (%)
same,Patients with serious AE,"[4]; Ex.1 Part B, Weekly 4",0 N (%)
same,Patients with severe AE,"[4]; Ex.1 Part B, Weekly 4",4 (30.8) N (%)
same,"drug-related gastrointestinal disorders, frequency","[4]; Ex.1 Part B, Weekly 4",92.3%
same,Patients with AE leading to discontinuation of trial drug,"[4]; Ex.1 Part B, Weekly 5",2 (18.2) N (%)
same,Patients with any AE,"[4]; Ex.1 Part B, Weekly 5",11 (100.0) N (%)
same,Patients with investigator defined drug-related AE,"[4]; Ex.1 Part B, Weekly 5",11 (100.0) N (%)
same,Patients with other significant AEs (ICH E3),"[4]; Ex.1 Part B, Weekly 5",3 (27.3) N (%)
same,Patients with serious AE,"[4]; Ex.1 Part B, Weekly 5",0 N (%)
same,Patients with severe AE,"[4]; Ex.1 Part B, Weekly 5",4 (36.4) N (%)
same,"drug-related gastrointestinal disorders, frequency","[4]; Ex.1 Part B, Weekly 5",all patients
same,proportion of patients who withdrew from up-titration,"[4]; Ex.1 Part B, Weekly 5",36.4%
same,Patients with AE leading to discontinuation of trial drug,[4]; [5],1 (8.3) N (%)
same,Patients with any AE,[4]; [5],11 (91.7) N (%)
same,Patients with investigator defined drug-related AE,[4]; [5],11 (91.7) N (%)
same,Patients with other significant AEs (ICH E3),[4]; [5],1 (8.3) N (%)
same,Patients with serious AE,[4]; [5],0 N (%)
same,Patients with severe AE,[4]; [5],0 N (%)
same,"drug-related gastrointestinal disorders, frequency",[4]; [5],58.3%
same,proportion of patients who withdrew from up-titration,[4]; [5],8.3%
same,proportion of patients who withdrew from up-titration,"[4]; Ex.1 Part B, all Compound I groups",22.2%
same,"ECG analyses, heart rate","[4]; Ex.1 Part B, all Compound I treatment groups",increases in heart rate
